# Marks after values point to notes of the source that are not given here.
# How the values were obtained:
# [1] = Mouse hepatocyte stability; assay type: in vitro ADME; conditions: intrinsic clearance
# T. vivax = test: Cattle efficacy for compound 2, intramuscular (CIRDES), T. vivax; assay type: in vivo, Trypanosoma vivax
# Description: Compound 2 was progressed into IM efficacy studies dosing at 10 mg/kg either once or twice, 15 h apart, in cattle infected with T. congolense or T. vivax. […]
# 3.5 Cattle efficacy for compound 2, intramuscular (CIRDES)
# Felani-zebu cattle were housed in a fly-proof facility, acclimatised for 15 d prior to the study, cattle were treated with an anthelmintic, an ectoparasiticide and an antibiotic. Donor animals were infected with stabilates (frozen stocks) of either T. congolense KOT256 (resistant to 7 mg/kg diminazene in cattle) or T. vivax Gando Bongaly (resistant to diminazene 7 mg/kg and to isometamidium 1 mg/kg […]
# in cattle). Blood from the donor animals, diluted with phosphate buffered glucose was used to infect recipient animals IV via the jugular vein. Infection was with approximately 100,000 fresh viable parasites. The compounds were given IM. Each injection was up to 10 mL and given in neck in the following order: left anterior third, right anterior third, left posterior third and right posterior third.
# Animals over 240 kg required a fifth injection site for the IVP, and this was given in the left or right hind leg. Cattle were randomised to treatments. Parasitaemia was monitored 3 times per calendar week, though collection of blood and assessment of clinical symptoms. Blood samples were also […]
# treatment). […]
# [2] = biological target: T1, Phosphoglycerate kinase (PGK) (Trypanosoma brucei brucei, UniProt P07378); test: SILAC pull-down with resin-bound 13, competition by compound 2; assay type: binding; conditions: procyclic lysate; compound 2 10 μM vs DMSO; mean of three experiments
# T1 construct: endogenous in cells; host or cells: Trypanosoma brucei procyclic form, whole-cell lysate
# T1 sequence (P07378 whole entry): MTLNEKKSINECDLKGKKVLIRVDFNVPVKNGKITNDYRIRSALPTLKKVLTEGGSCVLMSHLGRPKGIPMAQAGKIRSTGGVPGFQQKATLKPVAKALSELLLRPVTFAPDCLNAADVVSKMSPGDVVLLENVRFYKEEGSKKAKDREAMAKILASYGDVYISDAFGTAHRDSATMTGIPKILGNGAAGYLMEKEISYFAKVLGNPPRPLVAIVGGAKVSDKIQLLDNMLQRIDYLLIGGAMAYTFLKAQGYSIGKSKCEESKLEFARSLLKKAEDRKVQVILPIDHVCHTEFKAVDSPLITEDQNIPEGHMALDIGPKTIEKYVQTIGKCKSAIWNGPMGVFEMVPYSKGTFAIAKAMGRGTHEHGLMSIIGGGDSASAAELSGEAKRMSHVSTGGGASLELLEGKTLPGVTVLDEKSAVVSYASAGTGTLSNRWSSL
# Description: Chemical proteomic studies were carried out by immobilizing an analogue of compound 2 (probe 13; Figure 3A and Scheme 4) to magnetic beads via a polyethyleneglycol (PEG) linker. Appropriate attachment sites for the PEG linker were informed by the established structure–activity relationships within this series, and an advanced intermediate toward the final derivatized compound was screened against both bloodstream and procyclic forms of T. brucei to ensure that it retained potency. The analogue was immobilized by attachment to NHS-ester-activated paramagnetic beads. Activated beads were then incubated in SILAC (stable isotope labeling by amino acids in cell culture)-labeled T. brucei procyclic whole-cell lysates in the presence or absence of compound 2 (10 μM) with either “light-“ or “heavy”-labeled lysate. After combining the eluates from the beads and performing proteomic analyses, proteins that bound specifically to the diaminothiazole pharmacophore were distinguished from proteins that bound non-specifically to the beads by virtue of compound 2:DMSO tryptic peptide isotope ratios. As a result of these studies, four kinases and a cyclin were identified as specific binders of the compound 2-derivatized beads (Figure 3B and Table S11). It should be noted that of the four kinases identified, only CRK12 has been established as essential for survival of T. brucei.[14] […]
smiles,measurement,setting,value
"CC(C)CS(=O)(=O)N[C@H]1CC[C@H](Nc2nc(N)c(C(=O)c3c(F)cccc3F)s2)CC1 [Compound 1, N-((trans)-4-((4-Amino-5-(2,6-difluorobenzoyl)thiazol-2-yl)amino)cyclohexyl)-2-methylpropane-1-sulfonamide]",Mouse Hepatocyte Cli,[1],5.9 mL/min/g
"CC(C)CS(=O)(=O)N[C@H]1CC[C@H](Nc2nc(N)c(C(=O)c3c(F)cc(CN(C)C)cc3F)s2)CC1 [Compound 2, N-(trans)-[4-[[4-Amino-5-[4-(dimethylaminomethyl)-2,6-difluoro-benzoyl]thiazol-2-yl]amino]cyclohexyl]-2-methyl-propane-1-sulfonamide]",efficacy,"T. vivax; T5, 10 mg/kg IM once",0/5 ^a
same,"Efficacy, individual animals","T. vivax; T5 dosed once IM, animals 1907, 1918, 1932, 1933, 1940",No
same,efficacy,"T. vivax; T6, 10 mg/kg IM twice, 15 h apart",0/3 ^a
same,"Efficacy, individual animals","T. vivax; T6 dosed twice IM, animals 1902, 1926, 1929",No
same,efficacy,"T. vivax; T9, saline twice, followed by compound 2 rescue dose twice IM 4 days later",0/2 ^a
same,"Efficacy, individual animals","T. vivax; T9 after 2 (rescue IM), animals 1931, 1934",No and no
same,Cattle cured,"T. vivax; T. vivax-infected cattle, 10 mg/kg IM once or twice, 10 mg/kg",none and not cured
same,Log2 ratio DMSO/compound,[2],1.92

# Source: article PMC9014415, “Repositioning of a Diaminothiazole Series Confirmed to Target the Cyclin-Dependent Kinase CRK12 for Use in the Treatment of African Animal Trypanosomiasis” (Journal of Medicinal Chemistry, 2022)
